Results on one compound are retold here after paper PMC12018053 (Biochemistry and Biophysics Reports, 2025).

In one data set the target is 5-HT1B (Homo sapiens, UniProt P28222). The data set can be described thus: NIMH PDSP primary binding screen, 5-HT1B. Conditions: read-out: Inhibition (%) 5-HT1B.
The nature of data set [1]: Microsomal stability assay in human liver microsomes. The class given is in vitro ADME. The note with it: pH 7.4. On the technique in general: Liver microsomes are a subcellular fraction often used to study metabolism.
The next data set addresses 5-HT2A (Homo sapiens, UniProt P28223). The data set can be described thus: NIMH PDSP primary binding screen, 5-HT2A. Conditions: read-out: Inhibition (%) 5-HT2A.
The next data set concerns the target T1, 5-HT3 (Homo sapiens, UniProt P46098).
T1 sequence (P46098 24-478): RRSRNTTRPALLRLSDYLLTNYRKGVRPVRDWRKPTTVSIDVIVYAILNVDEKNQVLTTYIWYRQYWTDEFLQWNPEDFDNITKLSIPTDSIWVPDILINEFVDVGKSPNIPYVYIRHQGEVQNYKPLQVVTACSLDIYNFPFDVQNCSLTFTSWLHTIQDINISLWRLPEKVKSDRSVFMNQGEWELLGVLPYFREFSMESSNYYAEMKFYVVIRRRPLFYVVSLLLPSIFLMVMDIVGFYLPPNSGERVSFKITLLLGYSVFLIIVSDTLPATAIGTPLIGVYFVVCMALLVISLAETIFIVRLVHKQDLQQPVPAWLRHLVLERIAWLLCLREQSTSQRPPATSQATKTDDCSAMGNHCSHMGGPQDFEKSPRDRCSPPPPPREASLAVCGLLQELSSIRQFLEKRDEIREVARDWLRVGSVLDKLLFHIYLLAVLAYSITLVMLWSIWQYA
The data set can be described thus: NIMH PDSP primary binding screen, 5-HT3. Conditions: read-out: Inhibition (%) 5-HT3.

For the next data set, the target named is T2, Rat sEH (Rattus norvegicus, UniProt P80299).
T2 sequence (P80299 1-554): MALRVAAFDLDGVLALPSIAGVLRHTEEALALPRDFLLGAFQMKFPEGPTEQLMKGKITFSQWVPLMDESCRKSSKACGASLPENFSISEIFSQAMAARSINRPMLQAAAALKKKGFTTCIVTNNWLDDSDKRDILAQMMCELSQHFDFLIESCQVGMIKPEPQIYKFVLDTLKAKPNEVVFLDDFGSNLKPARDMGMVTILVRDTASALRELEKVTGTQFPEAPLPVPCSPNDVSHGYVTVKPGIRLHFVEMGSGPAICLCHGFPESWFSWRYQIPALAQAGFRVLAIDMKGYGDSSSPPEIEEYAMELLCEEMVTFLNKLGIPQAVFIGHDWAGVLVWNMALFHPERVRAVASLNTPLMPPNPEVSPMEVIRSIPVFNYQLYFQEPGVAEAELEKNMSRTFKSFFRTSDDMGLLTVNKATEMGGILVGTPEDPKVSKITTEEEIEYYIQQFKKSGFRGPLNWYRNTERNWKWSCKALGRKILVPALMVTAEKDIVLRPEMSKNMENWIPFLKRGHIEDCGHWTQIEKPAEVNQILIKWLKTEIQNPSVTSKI
Put plainly: sEH fluorescent-based inhibition assay. The class given is biochemical.

For data set [2], the system named is female Sprague-Dawley rats. The data set can be described thus: Orofacial formalin test without nitroglycerin. The note with it: 3 mg/kg i.p. 30 min before formalin, no nitroglycerin pretreatment. Type of data set: in vivo, rat.
For a further data set, the target named is Delta opioid (DOR) (Homo sapiens, UniProt P41143). The data set can be described thus: NIMH PDSP primary binding screen, DOR. The note with it: read-out: Inhibition (%) Delta opioid (DOR).
The target in the next data set is Mu opioid (MOR) (Homo sapiens, UniProt P35372). Put plainly: NIMH PDSP primary binding screen, MOR. Conditions: read-out: Inhibition (%) Mu opioid (MOR).
The target in a further data set is T3, 5-HT2C (Homo sapiens, UniProt P28335).
T3 sequence (P28335 33-458): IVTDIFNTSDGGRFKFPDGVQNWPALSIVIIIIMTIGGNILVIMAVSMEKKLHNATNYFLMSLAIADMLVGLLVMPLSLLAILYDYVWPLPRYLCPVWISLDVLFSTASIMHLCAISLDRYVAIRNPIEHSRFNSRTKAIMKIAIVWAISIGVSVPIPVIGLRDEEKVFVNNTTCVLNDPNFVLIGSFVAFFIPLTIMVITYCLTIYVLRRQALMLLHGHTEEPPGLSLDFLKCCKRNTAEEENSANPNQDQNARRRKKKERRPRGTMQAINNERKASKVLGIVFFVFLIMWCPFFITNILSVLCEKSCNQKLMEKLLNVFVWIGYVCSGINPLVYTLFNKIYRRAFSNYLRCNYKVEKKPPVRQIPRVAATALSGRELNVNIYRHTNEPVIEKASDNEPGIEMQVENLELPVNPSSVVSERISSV
The data set can be described thus: NIMH PDSP primary binding screen, 5-HT2C. The note with it: read-out: Inhibition (%) 5-HT2C.

The next data set deals with Kappa opioid (KOR) (Homo sapiens, UniProt P41145). Put plainly: NIMH PDSP primary binding screen, KOR. The note with it: read-out: Inhibition (%) Kappa opioid (KOR).
The next data set concerns the target T4, Mouse sEH (Mus musculus, UniProt P34914).
T4 sequence (P34914 1-554): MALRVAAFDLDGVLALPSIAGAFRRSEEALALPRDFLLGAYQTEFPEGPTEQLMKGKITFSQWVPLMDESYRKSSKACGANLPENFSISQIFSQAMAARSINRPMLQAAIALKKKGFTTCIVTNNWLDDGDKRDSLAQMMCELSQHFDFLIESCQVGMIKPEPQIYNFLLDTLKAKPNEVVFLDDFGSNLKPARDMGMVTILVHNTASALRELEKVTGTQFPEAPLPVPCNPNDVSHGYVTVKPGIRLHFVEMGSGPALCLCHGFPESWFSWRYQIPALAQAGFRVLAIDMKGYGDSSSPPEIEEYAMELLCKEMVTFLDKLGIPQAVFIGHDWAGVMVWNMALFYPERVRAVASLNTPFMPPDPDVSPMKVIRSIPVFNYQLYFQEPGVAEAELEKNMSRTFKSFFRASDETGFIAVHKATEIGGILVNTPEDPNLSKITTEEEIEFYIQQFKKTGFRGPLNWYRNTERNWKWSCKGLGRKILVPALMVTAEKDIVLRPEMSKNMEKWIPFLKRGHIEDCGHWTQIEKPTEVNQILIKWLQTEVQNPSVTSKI
Put plainly: sEH fluorescent-based inhibition assay. The class given is biochemical.

Data set [3] in a line: Microsomal stability assay in rat liver microsomes. Type of data set: in vitro ADME. The note with it: pH 7.4.
A short description of another data set: physchem. Conditions: sodium phosphate buffer, 24 °C, pH 7.4, aqueous buffer, kinetic from dmso stock.

Values after ≈ are worked out from the molar mass of the structure shown.

Sequence of Delta opioid (DOR) (P41143 whole entry): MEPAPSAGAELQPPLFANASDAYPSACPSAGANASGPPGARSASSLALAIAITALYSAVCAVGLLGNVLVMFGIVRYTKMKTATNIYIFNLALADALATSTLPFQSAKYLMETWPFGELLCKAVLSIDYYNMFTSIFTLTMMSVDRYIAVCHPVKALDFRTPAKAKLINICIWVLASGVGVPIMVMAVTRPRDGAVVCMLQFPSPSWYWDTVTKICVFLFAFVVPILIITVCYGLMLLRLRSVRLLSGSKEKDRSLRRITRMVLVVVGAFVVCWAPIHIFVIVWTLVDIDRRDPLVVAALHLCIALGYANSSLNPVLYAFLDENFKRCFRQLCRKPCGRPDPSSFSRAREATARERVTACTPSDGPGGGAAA
Sequence of Kappa opioid (KOR) (P41145 whole entry): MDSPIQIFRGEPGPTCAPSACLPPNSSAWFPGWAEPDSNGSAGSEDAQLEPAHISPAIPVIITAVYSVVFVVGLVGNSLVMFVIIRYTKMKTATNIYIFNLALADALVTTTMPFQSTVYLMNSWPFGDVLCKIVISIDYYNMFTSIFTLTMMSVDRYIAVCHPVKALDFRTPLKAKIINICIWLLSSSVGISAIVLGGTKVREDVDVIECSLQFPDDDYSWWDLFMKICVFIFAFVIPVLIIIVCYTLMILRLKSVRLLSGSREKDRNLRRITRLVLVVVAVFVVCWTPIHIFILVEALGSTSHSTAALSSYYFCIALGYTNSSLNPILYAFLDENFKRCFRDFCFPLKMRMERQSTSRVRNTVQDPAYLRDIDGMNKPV
Sequence of Mu opioid (MOR) (P35372 whole entry): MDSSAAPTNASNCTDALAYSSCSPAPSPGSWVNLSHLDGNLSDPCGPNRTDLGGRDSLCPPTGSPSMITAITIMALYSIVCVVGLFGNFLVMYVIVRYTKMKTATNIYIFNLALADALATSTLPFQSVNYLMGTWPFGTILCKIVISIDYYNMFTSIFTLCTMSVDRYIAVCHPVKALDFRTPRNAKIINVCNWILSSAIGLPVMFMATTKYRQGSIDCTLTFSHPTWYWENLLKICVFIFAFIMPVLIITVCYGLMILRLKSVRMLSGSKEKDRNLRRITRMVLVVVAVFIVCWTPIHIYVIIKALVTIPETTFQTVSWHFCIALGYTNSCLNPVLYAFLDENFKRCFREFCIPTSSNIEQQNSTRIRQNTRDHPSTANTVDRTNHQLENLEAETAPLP
Sequence of 5-HT2A (P28223 whole entry, species assumed): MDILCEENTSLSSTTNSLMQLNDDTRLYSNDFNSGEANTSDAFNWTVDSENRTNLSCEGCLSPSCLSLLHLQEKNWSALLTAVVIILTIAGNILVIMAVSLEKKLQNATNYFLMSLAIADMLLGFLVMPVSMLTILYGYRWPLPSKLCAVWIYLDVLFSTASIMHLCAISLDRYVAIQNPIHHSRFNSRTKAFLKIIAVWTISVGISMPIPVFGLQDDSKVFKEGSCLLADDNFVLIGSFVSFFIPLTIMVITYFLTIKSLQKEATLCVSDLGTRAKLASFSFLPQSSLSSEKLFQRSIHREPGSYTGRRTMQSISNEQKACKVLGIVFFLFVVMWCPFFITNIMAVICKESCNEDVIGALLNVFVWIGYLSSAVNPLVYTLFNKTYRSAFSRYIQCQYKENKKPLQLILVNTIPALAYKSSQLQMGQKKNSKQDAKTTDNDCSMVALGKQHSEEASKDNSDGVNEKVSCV
Sequence of 5-HT1B (P28222 whole entry, species assumed): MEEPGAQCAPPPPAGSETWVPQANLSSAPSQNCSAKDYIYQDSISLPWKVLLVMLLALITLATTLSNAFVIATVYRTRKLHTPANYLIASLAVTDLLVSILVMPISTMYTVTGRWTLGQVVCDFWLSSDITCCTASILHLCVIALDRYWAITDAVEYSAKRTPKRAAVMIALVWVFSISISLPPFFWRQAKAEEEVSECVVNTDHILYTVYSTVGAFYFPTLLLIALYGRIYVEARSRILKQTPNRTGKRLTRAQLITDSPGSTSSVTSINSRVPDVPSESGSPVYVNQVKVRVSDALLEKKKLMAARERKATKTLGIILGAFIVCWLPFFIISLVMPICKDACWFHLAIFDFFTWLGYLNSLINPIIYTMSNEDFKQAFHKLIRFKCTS

Take `O=C(Nc1ccc(-c2ccc3ccncc3c2)cc1)C1CCN(S(=O)(=O)c2ccccc2Cl)CC1` [Compound 4f, 1-((2-chlorophenyl)sulfonyl)-N-(4-(isoquinolin-7-yl)phenyl)piperidine-4-carboxamide]: the inhibition at 10 µM is 12.4 ± 2.29% on 5-HT1B; 17.4 ± 4.69% at 5-HT2A; -0.28 ± 5.94% at 5-HT3; 3.1 ± 1.53% at Delta opioid (DOR); 10.6 ± 4.75% on Mu opioid (MOR); 21.5 ± 4.63% at 5-HT2C. Moreover, the inhibition at 10 µM on Kappa opioid (KOR) is -18.1 ± 2.56%. In addition, the half-life (as a rule, the time in which the quantity being followed falls by half) at 1 µM in data set [1] is 58 min; in data set [3], 25.6 min. Also, the values for the microsomal CLint at 1 µM in data set [1] and in [3] were 23.7 µL/min/mg and 54 µL/min/mg, respectively. Further, the IC50 (as a rule, the concentration that inhibits the measured activity by half) is 0.001 µM against Rat sEH and 0.107 µM against Mouse sEH. For the same compound, the “Time spent rubbing the injected area vs vehicle” value in data set [2] is given as “no significant difference”. In addition, in “physchem”, the solubility (usually the concentration that dissolves in the medium under given conditions) amounted to 54.4 µM (≈ 27.5 µg/mL).
